{
  "source": "ChEMBL document CHEMBL1201862",
  "about": "“PubChem BioAssay data set” (2004)",
  "key": {"[1]": {"assay": "NIH3T3 cell viability loss – ATP luminescence, mouse fibroblasts, counter-screen, dose response (AID 2010);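 note: cells exposed to compound for about 90 hours before reading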", "assay_type": "functional, cell-based"}, "cells [2]": {"assay": "cells"}, "[3]": {"biological_target": "T1, Short transient receptor potential channel 4 (Mus musculus, UniProt Q9QUQ5)", "T1 sequence (Q9QUQ5 whole entry)": "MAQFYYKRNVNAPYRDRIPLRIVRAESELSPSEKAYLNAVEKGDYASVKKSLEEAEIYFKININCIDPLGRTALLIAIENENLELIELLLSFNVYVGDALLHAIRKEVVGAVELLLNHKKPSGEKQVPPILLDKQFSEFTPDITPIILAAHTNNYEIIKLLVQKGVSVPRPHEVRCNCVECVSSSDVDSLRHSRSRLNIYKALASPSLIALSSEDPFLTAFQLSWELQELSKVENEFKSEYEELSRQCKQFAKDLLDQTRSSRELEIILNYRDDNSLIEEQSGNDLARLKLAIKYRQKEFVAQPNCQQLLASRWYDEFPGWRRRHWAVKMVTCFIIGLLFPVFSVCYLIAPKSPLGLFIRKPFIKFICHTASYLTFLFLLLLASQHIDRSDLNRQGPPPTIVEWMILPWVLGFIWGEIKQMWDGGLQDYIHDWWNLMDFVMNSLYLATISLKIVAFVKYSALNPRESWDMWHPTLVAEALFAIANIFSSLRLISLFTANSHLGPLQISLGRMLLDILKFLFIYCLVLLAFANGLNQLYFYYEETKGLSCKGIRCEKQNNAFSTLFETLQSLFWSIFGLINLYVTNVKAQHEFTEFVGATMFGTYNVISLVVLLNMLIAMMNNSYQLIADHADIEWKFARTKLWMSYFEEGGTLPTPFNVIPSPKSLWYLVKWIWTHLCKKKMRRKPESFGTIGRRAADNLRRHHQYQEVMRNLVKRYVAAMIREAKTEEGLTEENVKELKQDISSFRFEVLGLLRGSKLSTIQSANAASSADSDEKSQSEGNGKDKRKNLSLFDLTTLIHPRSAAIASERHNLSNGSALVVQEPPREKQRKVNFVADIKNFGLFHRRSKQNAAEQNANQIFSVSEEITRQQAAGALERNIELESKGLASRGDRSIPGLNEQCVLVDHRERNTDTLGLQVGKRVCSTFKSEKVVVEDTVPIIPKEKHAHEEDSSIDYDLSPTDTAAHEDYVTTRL", "assay": "calcium entry via TRPC4 opening agents – cell-based, HEK293 TRPC4/mu-opioid, Fluo-4 calcium, dose response (AID 434937)", "assay_type": "functional"}, "[4]": {"assay": "Trypanosoma cruzi growth suppression in host cells – NIH3T3 host cells, beta-gal luminescence, confirmation (AID 2044);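 note: luminescent beta-galactosidase reporter signal from transgenic T. cruzi replicating inside host cells; inhibitors lower the luminescence signal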", "assay_type": "functional, cell-based"}, "[5]": {"assay": "A cytotoxicity screen of small molecule inhibitors of the PhoP region in Salmonella typhi identified in the primary screen. [Related pubchem assays: 1850, 1864, 1985 ]", "assay_type": "functional"}, "[6]": {"assay": "fluconazole-exposed Candida albicans growth modulators – fluorescence, retest, confirmation (AID 2467)", "assay_type": "functional, cell-based"}, "cells [7]": {"assay": "cells", "remark": "listed apart in the source"}, "[8]": {"assay": "NIH-3T3 fibroblast cytotoxicity, dose response, cytotoxicity control, cell-based, fluorescence, Alamar Blue, secondary assay (AID 2327);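 note: NIH-3T3 mouse fibroblasts cultured with fluconazole at 8 µg/mL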", "assay_type": "functional"}, "[9]": {"assay": "viability of uninfected HEp-2 cells – cell-based, HTS, cytotoxicity control for RSV inhibitor project, dose response (AID 2410)", "assay_type": "functional", "conditions": "human respiratory syncytial virus"}, "[10]": {"assay": "toxicity to human HepG2 hepatoma cells – cell-based, plate reader, dry powder samples, cytotoxicity control, dose response (AID 1159569);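 note: inhibitor potency with signal falling toward the positive control level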", "assay_type": "functional"}, "[11]": {"assay": "P. falciparum Dd2 growth inhibitors, dose response, SYBR Green, cherry-picked samples (AID 1159567)", "assay_type": "functional, cell-based"}, "[12]": {"assay": "Dd2 malaria parasite growth inhibition potency – SYBR Green, dry powder samples, dose response (AID 1159566);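 note: potency for growth inhibition with lower SYBR green DNA signal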", "assay_type": "functional, cell-based"}, "[13]": {"assay": "growth inhibition of yeast DHODH-expressing 3D7 parasites – SYBR Green, dry powder samples, dose response (AID 1159570);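 note: parasite growth measured after 72 hours of compound exposure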", "assay_type": "functional, cell-based"}, "[14]": {"assay": "growth inhibition of PfATP4-mutant resistant parasites – NITD609-resistant line, SYBR Green, dry powder, dose response (AID 1159571);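 note: parasites synchronized at ring stage by sorbitol before testing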", "assay_type": "functional, cell-based"}, "[15]": {"assay": "viability of HCT116 lacking mutant beta-catenin – cell-based, human colon tumor, dose response (AID 1045);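 note: HCT116 colon tumor cells with beta catenin knocked out; cells exposed to compound for 60 hours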", "assay_type": "functional"}, "[16]": {"assay": "viability of PTEN-deleted HCT116 cells – cell-based, HCT116 PTEN knockout, dose response (AID 1047);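 note: HCT116 colon tumor cells with PTEN knocked out; cells exposed to compound for 60 hours before readout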", "assay_type": "functional"}, "Vero": {"test_system": "Vero", "assay": "cells", "assay_type": "functional", "conditions": "Chlorocebus sabaeus"}, "[17]": {"biological_target": "T2, Calpain-2 catalytic subunit (Sus scrofa, UniProt P43367)", "T2 sequence (P43367 whole entry)": "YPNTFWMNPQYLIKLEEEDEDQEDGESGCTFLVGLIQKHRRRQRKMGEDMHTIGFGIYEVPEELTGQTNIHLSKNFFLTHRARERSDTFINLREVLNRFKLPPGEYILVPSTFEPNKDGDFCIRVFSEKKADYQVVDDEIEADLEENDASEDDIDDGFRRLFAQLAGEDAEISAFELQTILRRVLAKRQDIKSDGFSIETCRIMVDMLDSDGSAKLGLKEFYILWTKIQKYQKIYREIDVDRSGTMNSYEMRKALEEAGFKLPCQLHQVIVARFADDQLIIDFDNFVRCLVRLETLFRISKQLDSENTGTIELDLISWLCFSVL", "assay": "m-calpain protease blockers, concentration series – biochemical, fluorogenic peptide substrate, dose response (AID 1420)", "assay_type": "functional"}, "[18]": {"assay": "alpha-synuclein stem-loop luciferase translation blockers – H4 neuroglioma cells, luminescence, confirmation (AID 1988)", "assay_type": "functional, cell-based"}, "[19]": {"assay": "luciferase reporter signal suppression in cells – H4 neuroglioma cells, luminescence, dose response (AID 1990)", "assay_type": "functional, cell-based"}, "[20]": {"assay": "Luminescence Cell-Based Dose Response HTS to Identify Inhibitors of 5'UTR Stem-Loop Driven Prion Protein mRNA Translation in H4 Neuroglioblastoma Cells. [Related pubchem assays: 1827 (Project Summary), 1813 (Primary HTS)]", "assay_type": "functional"}, "[21]": {"assay": "Luminescence Cell-Based Dose Retest to Confirm Inhibitors of Cancer Stem Cells. [Related pubchem assays (depositor defined):AID2717, AID2721]", "assay_type": "functional", "conditions": "Homo sapiens"}},
  "note": "The source made the active and inactive calls.",
  "data": [
    {"smiles": "CC(C)Cc1ccc(CN2CCCC(NC(=O)CCn3cnnn3)C2)cc1", "note": "(stereo unspecified)", "values": [
      {"measurement": "EC50", "setting": "[1]", "value": "> 30 µM (not active)"},
      {"measurement": "EC50", "setting": "cells [2]", "value": "0.046 µM (active)"},
      {"measurement": "EC50", "setting": "[3]", "value": "4.22 µM (active)"},
      {"measurement": "EC50", "setting": "[4]", "value": "< 0.1 µM (active)"}
    ]},
    {"smiles": "CCn1nc(C)c(CN2CCCC(C(=O)c3cccc(OC(C)C)c3)C2)c1C", "note": "(stereo unspecified)", "values": [
      {"measurement": "EC50", "setting": "[1]", "value": "> 60 µM (not active)"},
      {"measurement": "EC50", "setting": "cells [2]", "value": "0.21 µM (active)"},
      {"measurement": "EC50", "setting": "[4]", "value": "< 0.1 µM (active)"}
    ]},
    {"smiles": "Clc1ccc(C(c2ccccc2)N2CCNCC2)cc1", "note": "(stereo unspecified) [NORCHLORCYCLIZINE]", "values": [
      {"measurement": "EC50", "setting": "[5]", "value": "> 50 µM (active)"}
    ]},
    {"smiles": "Cc1c2ccccc2nc2c(F)c(NCCO)c(F)c(F)c12", "values": [
      {"measurement": "EC50", "setting": "[6]", "value": "> 38 µM (not active)"},
      {"measurement": "IC50", "setting": "cells [7]", "value": "1.53 µM (active)"},
      {"measurement": "EC50", "setting": "[8]", "value": "> 160 µM (inactive)"},
      {"measurement": "CC50", "setting": "[9]", "value": "1.77 µM (active)"}
    ]},
    {"smiles": "C[C@H]1CN([C@@H](C)CO)C(=O)c2c(c3ccccc3n2C)-c2ccccc2CO[C@H]1CN(C)C(=O)Nc1ccc(-c2ccccc2)cc1", "values": [
      {"measurement": "AC50", "setting": "[10]", "value": "> 100 µM (inactive)"},
      {"measurement": "AC50", "setting": "[11]", "value": "2.08 µM (active)"},
      {"measurement": "AC50", "setting": "[12]", "value": "0.656 µM (active)"},
      {"measurement": "AC50", "setting": "[13]", "value": "2.71 µM (active)"},
      {"measurement": "AC50", "setting": "[14]", "value": "0.634 µM (active)"}
    ]},
    {"smiles": "COc1ccc(CNc2nc3ccccc3n2C)c(O)c1", "values": [
      {"measurement": "EC50", "setting": "[5]", "value": "> 50 µM (active)"}
    ]},
    {"smiles": "O=C(/C=C/c1ccccc1)Nc1nnc(SCC(=O)c2ccc3ccccc3c2)s1", "values": [
      {"measurement": "EC50", "setting": "[15]", "value": "9.72 µM (active)"},
      {"measurement": "EC50", "setting": "[16]", "value": "9.17 µM (active)"}
    ]},
    {"smiles": "COc1ccccc1CN1C[C@@H]2N[C@H](C1)[C@@H]2c1ccc(-c2ccncc2)cc1", "values": [
      {"measurement": "AC50", "setting": "[10]", "value": "24.6 µM (active)"},
      {"measurement": "AC50", "setting": "[11]", "value": "2.48 µM (active)"},
      {"measurement": "AC50", "setting": "[12]", "value": "2.02 µM (active)"},
      {"measurement": "AC50", "setting": "[13]", "value": "3.59 µM (active)"},
      {"measurement": "AC50", "setting": "[14]", "value": "3.07 µM (active)"}
    ]},
    {"smiles": "CN(C)CCCN(C(=O)c1nc2ccccc2s1)c1nc2ccc(F)cc2s1", "values": [
      {"measurement": "EC50", "setting": "[1]", "value": "> 60 µM (not active)"},
      {"measurement": "EC50", "setting": "cells [2]", "value": "< 0.004 µM (active)"},
      {"measurement": "EC50", "setting": "[4]", "value": "< 0.1 µM (active)"},
      {"measurement": "CC50", "setting": "Vero", "value": "> 25 µM (active)"}
    ]},
    {"smiles": "Cc1ccccc1-n1nnnc1SCc1ncc(-c2ccccc2)o1", "values": [
      {"measurement": "IC50", "setting": "[17]", "value": "5.05 µM (not active)"}
    ]},
    {"smiles": "O=C(Nc1ccncc1)c1cc(-c2cccc(Br)c2)nc2ccccc12", "values": [
      {"measurement": "IC50", "setting": "cells [7]", "value": "17.4 µM (active)"},
      {"measurement": "EC50", "setting": "[18]", "value": "> 120 µM (not active)"},
      {"measurement": "EC50", "setting": "[19]", "value": "> 120 µM (not active)"},
      {"measurement": "EC50", "setting": "[20]", "value": "> 120 µM (not active)"},
      {"measurement": "AC50", "setting": "[21]", "value": "5.05 µM (active)"},
      {"measurement": "CC50", "setting": "[9]", "value": "22.7 µM (active)"}
    ]}
  ]
}
